According to article PMC10301432, “Antiplasmodial, Trypanocidal, and Genotoxicity In Vitro Assessment of New Hybrid α,α-Difluorophenylacetamide-statin Derivatives” (Pharmaceuticals, 2023):
Entries after “also recorded” stand apart in the source; their conditions may differ.

Key:
[1] = tested on: human hepatoma cell line (HepG2); assay: in vitro; format: cell-based; conditions: preliminary cytotoxicity, HepG2
Procedure: Human hepatocellular carcinoma (HepG2) and Chinese Hamster Ovary (CHO-K1) cells obtained from the American Type Culture Collection (Manassas, VA, USA) were cultured in Eagle’s medium (MEM, Gibco®, Waltham, MA, USA) containing 10% fetal bovine serum (FBS) plus 100 µg/mL streptomycin and 100 µg/mL penicillin at 37 °C in a 5% CO2 atmosphere. Logarithmic-phase cells were used in all the experiments.
Fresh HepG2 and CHO-K1 cells were seeded at a density of 1 × 10^4/well. […] Briefly, after treatment, the culture medium was replaced by 90 μL fresh culture medium and 10 μL WST-1 reagent and incubated at 37 °C and 5% CO2 for 3 h. The absorbance was then measured at 440 nm according to the kit protocol.

HepG2 cells = assay: In vitro micronuclei assay, HepG2; format: cell-based, human; conditions: HepG2; 3 h of exposure
Procedure: (§1) Fresh HepG2 and CHO-K1 cells were seeded at the density of 1 × 10^5 cells/mL into 24-well plates (1 mL/per well). The compounds 13 (a–d) were then added to the medium to final concentrations of 500, 1000 and 2000 µM and incubation continued for 3 h or 24 h. DMSO 10% was used as the negative control, and, BaP (80 µM) for HepG2 and MMC (5 µM) for CHO-K1 were the positive controls. After exposure to the compounds, the cells were incubated for more than 24 h under growth conditions before quantification of the micronuclei and cytotoxicity. The cytogenetic studies were carried out in triplicate as described previously (see [51]). In order to determine the mitotic index and the number of cells with micronuclei, the medium was replaced by a cold methanol-glacial acetic acid (3:1) fixative for 30 min, and the cells then rinsed with distilled water for 2 min and air dried. The fixed cells were stained with 4,6-diamidino-2-phenylindole (DAPI) ([…]) dissolved in McIlvaine buffer (0.1 M citric acid plus 0.2 M Na2HPO4, pH 7.0) for 60 min, washed with McIlvaine buffer for 5 min, briefly rinsed with distilled water and mounted in glycerol. To determine the mitotic index and the number of cells with micronuclei, 1000 cells per well (3000 cells per concentration) were analyzed under a fluorescence microscope. The results for micronuclei were presented as the percentage of cells containing micronuclei in the 3000 cells/concentration group analyzed. Cells that glowed brightly and had homogenous nuclei were considered as having normal phenotypic morphology. Apoptotic nuclei were identified by the condensed chromatin at the periphery of the nuclear membrane or by fragmented nuclear body morphology. Necrotic cells presented chromatin forms with irregularly shaped aggregates, a pyknotic nucleus (shrunken and darkly stained) and cell membrane disruption, with cellular debris spilled into the extracellular milieu. Once again, 3000 cells were counted and the percentage of viable cells was evaluated, discounting apoptotic and necrotic cells. Statistical differences between the groups were analyzed by two-way ANOVA (p < 0.01) and Tukey’s post hoc test.

[2] = tested on: Salmonella enterica serovar Typhimurium TA100; assay: Salmonella/microsome assay, TA100
[3] = Salmonella/microsome assay, TA97; conditions: Salmonella enterica serovar Typhimurium, S. typhimurium TA97 without S9 mix, pH 7.4
Procedure: (§2) Salmonella enterica serovar Typhimurium (S. typhimurium) strains TA97, TA98, TA100, TA104 and TA102 from the authors’ stock were used as described in the mutagenicity assay.
(§3) To determine the cytotoxic effects, after 30 min pre-incubation, the assay mixtures were diluted in 0.9% NaCl (w/v) to obtain a suspension containing 2 × 10^2 cells/mL. […] The plates were then incubated at 37 °C for 24 h and the colonies counted. All the experiments were conducted in triplicate and were repeated at least twice. Statistical differences between the groups were analyzed by a two-way ANOVA (p < 0.05) and Tukey’s post hoc test.

[4] = Salmonella/microsome assay, TA98; conditions: Salmonella enterica serovar Typhimurium, S. typhimurium TA98 without S9 mix, pH 7.4
Procedure: as §2, §3

[5] = tested on: CHO-K1 and HepG2 cell lineages; format: cell-based
Procedure: as §1, with “Necrotic cells presented chromatin forms with irregularly shaped aggregates, a pyknotic nucleus (shrunken and darkly stained) and cell membrane disruption, with cellular debris spilled into the extracellular milieu.” left out

[6] = Salmonella/microsome assay, TA100; conditions: Salmonella enterica serovar Typhimurium, S. typhimurium TA100 without S9 mix, pH 7.4

Which “lack of toxic events up to” value [1] does the source give for `CC(=O)Nc1ccc(Cl)cc1C(F)(F)C(=O)NCC[C@@H]1C[C@H](CC(=O)OC(C)(C)C)OC(C)(C)O1` [Compound 13c, tert-Butyl 2-((4R,6R)-6-(2-(2-(2-acetamido-5-chlorophenyl)-2,2-difluoroacetamido)ethyl)-2,2-dimethyl-1,3-dioxan-4-yl)acetate] here?
Its value is “up to 400 μM”.

And the “micronuclei formation (genotoxicity)” value (HepG2 cells)?
The value was “did not induce micronuclei formation”.

And the “revertant His+ colonies TA100” value ([2]; +S9, 3 µM)?
Its value is 223 ± 39.

What about the “revertant His+ colonies TA100” value ([2]; +S9, 15 µM) of the same compound?
Its value is 223 ± 47.

And the “revertant His+ colonies TA100” value ([2]; +S9, 30 µM)?
The value was 228 ± 17.

What about the “revertant His+ colonies TA100” value ([2]; +S9, 150 µM) of the same compound?
Its value is 278 ± 5.

What about the “revertant His+ colonies TA100” value ([2]; +S9, 300 µM) of the same compound?
Its value is 286 ± 18.

And the “revertant His+ colonies TA100” value ([2]; +S9, 1500 µM)?
Its value is 300 ± 15.

What about the “revertant His+ colonies TA100” value ([2]; −S9, 3 µM) of the same compound?
Its value is 135 ± 38.

What about the “revertant His+ colonies TA100” value ([2]; −S9, 15 µM) of the same compound?
The value was 135 ± 21.

And the “revertant His+ colonies TA100” value ([2]; −S9, 30 µM)?
The value was 135 ± 30.

And the “revertant His+ colonies TA100” value ([2]; −S9, 150 µM)?
The value was 140 ± 31.

And the “revertant His+ colonies TA100” value ([2]; −S9, 300 µM)?
The value was 164 ± 17.

What about the “revertant His+ colonies TA100” value ([2]; −S9, 1500 µM) of the same compound?
Its value is 168 ± 15.

For `CC(=O)Nc1ccc(Br)cc1C(F)(F)C(=O)NCC[C@@H]1C[C@H](CC(=O)OC(C)(C)C)OC(C)(C)O1` [Compound 13d, tert-Butyl 2-((4R,6R)-6-(2-(2-(2-acetamido-5-bromophenyl)-2,2-difluoroacetamido)ethyl)-2,2-dimethyl-1,3-dioxan-4-yl)acetate], which CC50 at 30 min [3] is on record?
Its CC50 at 30 min is 1.49 ± 0.0365 mM.

And the CC50 at 30 min [4]?
The CC50 at 30 min was 1.26 ± 0.0468 mM.

And the “cytotoxicity (survival rate) in micronuclei assay” value (HepG2 cells)?
Its value is “non-cytotoxic”.

What about the “micronuclei formation (genotoxicity)” value (HepG2 cells) of the same compound?
Its value is “induced a significant micronuclei formation; also recorded: induced genotoxicity”.

And the “Mammalian Cell Genotoxicity” value [5]?
Its value is “Yes”.

What about the CC50 at 30 min [6] of the same compound?
The CC50 at 30 min was 0.12 ± 0.0141 mM.

And the “revertant His+ colonies TA100” value ([2]; +S9, 3 µM)?
Its value is 156 ± 18.

And the “revertant His+ colonies TA100” value ([2]; +S9, 15 µM)?
The value was 166 ± 11.

And the “revertant His+ colonies TA100” value ([2]; +S9, 30 µM)?
The value was 173 ± 1.

And the “revertant His+ colonies TA100” value ([2]; +S9, 150 µM)?
The value was 174 ± 21.

And the “revertant His+ colonies TA100” value ([2]; +S9, 300 µM)?
The value was 181 ± 15.

And the “revertant His+ colonies TA100” value ([2]; +S9, 1500 µM)?
The value was “Cytotoxic”.

And the “revertant His+ colonies TA100” value ([2]; −S9, 3 µM)?
The value was 99 ± 4.

And the “revertant His+ colonies TA100” value ([2]; −S9, 15 µM)?
Its value is 96 ± 12.

And the “revertant His+ colonies TA100” value ([2]; −S9, 30 µM)?
The value was 93 ± 1.

And the “revertant His+ colonies TA100” value ([2]; −S9, 150 µM)?
The value was “Cytotoxic”.

With `CC(=O)Nc1ccccc1C(F)(F)C(=O)NCC[C@@H]1C[C@H](CC(=O)OC(C)(C)C)OC(C)(C)O1` [Compound 13a, tert-Butyl 2-((4R,6R)-6-(2-(2-(2-acetamidophenyl)-2,2-difluoroacetamido)ethyl)-2,2-dimethyl-1,3-dioxan-4-yl)acetate] as the compound, how does the “cytotoxicity (survival rate) in micronuclei assay” value (HepG2 cells) read?
The value was “significant cytotoxic effects upon 1000 µM”.

What about the “micronuclei formation (genotoxicity)” value (HepG2 cells) of the same compound?
The value was “did not induce micronuclei formation; also recorded: non-genotoxic”.

What about the “Mammalian Cell Genotoxicity” value [5] of the same compound?
The value was “Yes”.

What about the “revertant His+ colonies TA100” value ([2]; +S9, 3 µM) of the same compound?
The value was 211 ± 37.

And the “revertant His+ colonies TA100” value ([2]; +S9, 15 µM)?
Its value is 223 ± 15.

And the “revertant His+ colonies TA100” value ([2]; +S9, 30 µM)?
The value was 241 ± 36.

What about the “revertant His+ colonies TA100” value ([2]; +S9, 150 µM) of the same compound?
The value was 244 ± 14.

What about the “revertant His+ colonies TA100” value ([2]; +S9, 300 µM) of the same compound?
The value was 270 ± 45.

And the “revertant His+ colonies TA100” value ([2]; +S9, 1500 µM)?
Its value is 290 ± 31.

And the “revertant His+ colonies TA100” value ([2]; −S9, 3 µM)?
Its value is 117 ± 43.

What about the “revertant His+ colonies TA100” value ([2]; −S9, 15 µM) of the same compound?
The value was 136 ± 13.

What about the “revertant His+ colonies TA100” value ([2]; −S9, 30 µM) of the same compound?
The value was 139 ± 13.

And the “revertant His+ colonies TA100” value ([2]; −S9, 150 µM)?
The value was 142 ± 5.

What about the “revertant His+ colonies TA100” value ([2]; −S9, 300 µM) of the same compound?
Its value is 162 ± 37.

What about the “revertant His+ colonies TA100” value ([2]; −S9, 1500 µM) of the same compound?
The value was 179 ± 34.

What does the source list for `CC(=O)Nc1ccc(C)cc1C(F)(F)C(=O)NCC[C@@H]1C[C@H](CC(=O)OC(C)(C)C)OC(C)(C)O1` [Compound 13b, tert-Butyl 2-((4R,6R)-6-(2-(2-(2-acetamido-5-methylphenyl)-2,2-difluoroacetamido)ethyl)-2,2-dimethyl-1,3-dioxan-4-yl)acetate]?
lack of toxic events up to [1]: up to 400 μM; CC50 at 30 min [3]: > 1.5 mM; CC50 at 30 min [4]: > 1.5 mM; cytotoxicity (survival rate) in micronuclei assay (HepG2 cells): statistical enhancement; also recorded: cytotoxic; micronuclei formation (genotoxicity) (HepG2 cells): statistical enhancement; also recorded: genotoxic; also recorded: only increased micronucleation in HepG2 cells at >2000 µM; Mammalian Cell Genotoxicity [5]: Yes; CC50 at 30 min [6]: > 1.5 mM; revertant His+ colonies TA100 ([2]; +S9, 3 µM): 179 ± 38; revertant His+ colonies TA100 ([2]; +S9, 15 µM): 188 ± 23; revertant His+ colonies TA100 ([2]; +S9, 30 µM): 228 ± 46; revertant His+ colonies TA100 ([2]; +S9, 150 µM): 260 ± 32; revertant His+ colonies TA100 ([2]; +S9, 300 µM): 306 ± 60; revertant His+ colonies TA100 ([2]; +S9, 1500 µM): 333 ± 45; revertant His+ colonies TA100 ([2]; −S9, 3 µM): 145 ± 11; revertant His+ colonies TA100 ([2]; −S9, 15 µM): 146 ± 1; revertant His+ colonies TA100 ([2]; −S9, 30 µM): 145 ± 17; revertant His+ colonies TA100 ([2]; −S9, 150 µM): 143 ± 40; revertant His+ colonies TA100 ([2]; −S9, 300 µM): 144 ± 8; revertant His+ colonies TA100 ([2]; −S9, 1500 µM): 178 ± 10
